Counter-ions that a name gives are not always drawn.
How the values were obtained:
[1] = test system: chick embryo vitelline capillaries; experiment: Chick embryo vitelline capillary regression assay; assay type: in vivo; design: key to vascular reactivity (capillary regression): +: Vascular reactivity; 0: No vascular reactivity; +/-: Equivocal reactivity; conditions: for Chick embryo diss. assay, Minimum Effective Concentration: Table II; for vascular reactivity (capillary regression): 60 min; for effect on chick embryo vessels / blood: in words
Protocol: Using the chick embryo vitelline capillaries assay, compounds were tested for their ability to induce capillary regression. Each compound was applied in 0.1 ml of 15% Ficol 400 and PBS onto the embryo, and vascular regression was assessed after 60 minutes.
The 3-day chick embryo consists of an embryonic disc from which numerous vessels emerge and return, forming a "figure 8"-shaped structure--the embryo in the center with vascular loops extending outward over both poles. […] Following a lag period of around 15 minutes, the constriction of continuity between capillary and secondary vessels, generally on the "avenous" side, was observed. Continued pulsatile blood flow progressed, resulting in a "swelling" of the blind tube, followed by a pinching off of the remaining connection and formation of an enclosed vascular sac resembling a "blood island." This process progressed until only the largest vessels remained intact.

[2] = test system: Xenopus tadpole; conditions: stage 59-60, 10 μg/ml; in words

SMILES | Chick embryo diss. assay, Minimum Effective Concentration [1] [µg] | pharmacological response in tadpole [2] | vascular reactivity (capillary regression) ([1]; 1 μg applied) | other results
COC(=O)CC[C@@H](C)[C@H]1CC[C@H]2[C@@H]3CC[C@H]4C[C@@H](NCCCNCCCCNCCCN)CC[C@]4(C)[C@H]3CC[C@]12C [Compound 459] | > 1 | pharmacologic activity similar to that seen for FX 3 | – | –
CC(C)CCC[C@@H](C)[C@H]1CC[C@H]2[C@@H]3[C@H](O)C[C@H]4C[C@@H](NCCCNCCCCN)CC[C@]4(C)[C@H]3CC[C@]12C [Compound 371] | 1 to 10 | effects like those produced by compound 1436 | +/- | vascular reactivity (capillary regression) ([1]; 0.001 μg applied): 0; vascular reactivity (capillary regression) ([1]; 0.01 μg applied): 0; vascular reactivity (capillary regression) ([1]; 0.1 μg applied): 0; vascular reactivity (capillary regression) ([1]; 10 μg applied): +
COC(=O)CC[C@@H](C)[C@H]1CC[C@H]2[C@@H]3CC[C@@H]4C[C@H](NCCN)CC[C@]4(C)[C@H]3C[C@H](O)[C@]12C [Compound 416] | > 1 | functionally similar to compound 1437 | – | –
COC(=O)CC[C@@H](C)[C@H]1CC[C@H]2[C@@H]3[C@H](O)C[C@H]4C[C@H](NCCCNCCCCN)CC[C@]4(C)[C@H]3CC[C@]12C [Compound 394] | > 10 | – | – | –
COC(=O)CC[C@@H](C)[C@H]1CC[C@H]2[C@@H]3[C@H](O)C[C@@H]4C[C@@H](NCCCNCCCCNCCCN)CC[C@]4(C)[C@H]3CC[C@]12C [Compound 411] | > 1 | – | +/- | –
COC(=O)CC[C@@H](C)[C@H]1CC[C@H]2[C@@H]3[C@H](O)C[C@H]4C[C@H](NCCCNCCCCNCCCN)CC[C@]4(C)[C@H]3CC[C@]12C [Compound 395] | > 10 | – | – | –
CC(C)CCC[C@@H](C)[C@H]1CC[C@H]2[C@@H]3[C@H](O)C[C@H]4C[C@@H](N)CC[C@]4(C)[C@H]3CC[C@]12C [Compound 1364] | – | – | + | vascular reactivity (capillary regression) ([1]; 0.001 μg applied): 0; vascular reactivity (capillary regression) ([1]; 0.01 μg applied): 0; vascular reactivity (capillary regression) ([1]; 0.1 μg applied): 0; vascular reactivity (capillary regression) ([1]; 10 μg applied): +
CC(C)CCC[C@@H](C)[C@H]1CC[C@H]2[C@@H]3CC[C@H]4C[C@H](NCCCNCCCCNCCCN)CC[C@]4(C)[C@H]3CC[C@]12C [Compound 354] | > 10 | – | – | –
COC(=O)CC[C@@H](C)[C@H]1CC[C@H]2[C@@H]3CC[C@H]4C[C@H](NCCCNCCCCNCCCN)CC[C@]4(C)[C@H]3CC[C@]12C [Compound 458] | > 1 | pharmacologic activity similar to that seen for FX 3 | – | –
C[C@H](CCC(=O)O)[C@H]1CC[C@H]2[C@@H]3[C@H](O)C[C@@H]4C[C@@H](NCCCNCCCCNCCCN)CC[C@]4(C)[C@H]3CC[C@]12C [Compound 413] | > 1 | effects like those produced by compound 1436 | 0 | –
C[C@H](CCC(=O)O)[C@H]1CC[C@H]2[C@@H]3CC[C@@H]4C[C@H](NCCN)CC[C@]4(C)[C@H]3C[C@H](O)[C@]12C [Compound 417] | > 1 | – | – | –
C[C@H](CCC(=O)O)[C@H]1CC[C@H]2[C@@H]3CC[C@H]4C[C@H](NCCCNCCCCN)CC[C@]4(C)[C@H]3CC[C@]12C [Compound 318] | > 10 | – | 0 | –
COC(=O)CC[C@@H](C)[C@H]1CC[C@H]2[C@@H]3C[C@@H](O)[C@H]4C[C@H](NCCCNCCCCNCCCN)CC[C@]4(C)[C@H]3CC[C@]12C [Compound 465] | – | pharmacologic activity similar to that seen for FX 3 | – | –
C[C@H](CCC(=O)O)[C@H]1CC[C@H]2[C@@H]3[C@H](O)C[C@H]4C[C@@H](NCCCNCCCCN)CC[C@]4(C)[C@H]3CC[C@]12C [Compound 381] | > 10 | – | 0 | –
CC(COS(=O)(=O)O)C(=O)CC[C@@H](C)[C@H]1CC[C@H]2[C@@H]3[C@H](O)C[C@H]4C[C@@H](NCCCNCCCCN)CC[C@]4(C)[C@H]3CC[C@]12C (single isomer, unassigned) [Compound 1360] | > 10 | Swelling and lysis of certain erythrocytes occurred, resulting in accumulation of nuclei within certain small vessels of the tail. Subsequent tissue breakdown occurred in areas of tail surrounding these nuclear plugs. | 0 | effect on chick embryo vessels / blood [1]: Within 20 minutes, the blood circulating through the embryonic vessels exhibited a brighter red color
COC(=O)CC[C@@H](C)[C@H]1CC[C@H]2[C@@H]3[C@H](O)C[C@H]4C[C@@H](NCCCNCCCCNCCCN)CC[C@]4(C)[C@H]3CC[C@]12C [Compound 396] | 10 | – | + | vascular reactivity (capillary regression) ([1]; 0.001 μg applied): 0; vascular reactivity (capillary regression) ([1]; 0.01 μg applied): 0; vascular reactivity (capillary regression) ([1]; 0.1 μg applied): 0
COC(=O)CC[C@@H](C)[C@H]1CC[C@H]2[C@@H]3[C@H](O)C[C@@H]4C[C@@H](NCCN)CC[C@]4(C)[C@H]3CC[C@]12C [Compound 409] | > 1 | functionally similar to compound 1437 | 0 | –
COC(=O)CC[C@@H](C)[C@H]1CC[C@H]2[C@@H]3C[C@@H](O)[C@H]4C[C@@H](NCCN)CC[C@]4(C)[C@H]3CC[C@]12C [Compound 432] | > 1 | functionally similar to compound 1437 | – | –
C[C@H](CCC(=O)O)[C@H]1CC[C@H]2[C@@H]3[C@H](O)C[C@H]4C[C@@H](NCCCNCCCCNCCCN)CC[C@]4(C)[C@H]3CC[C@]12C [Compound 397] | 1 | – | – | –
C[C@H](CCC(=O)O)[C@H]1CC[C@H]2[C@@H]3[C@H](O)C[C@@H]4C[C@H](NCCCNCCCCNCCCN)CC[C@]4(C)[C@H]3CC[C@]12C [Compound 412] | 1 | pharmacologic activity similar to that seen for FX 3 | + | vascular reactivity (capillary regression) ([1]; 0.001 μg applied): 0; vascular reactivity (capillary regression) ([1]; 0.01 μg applied): 0; vascular reactivity (capillary regression) ([1]; 0.1 μg applied): 0
C[C@H](CCC(=O)O)[C@H]1CC[C@H]2[C@@H]3CC[C@@H]4C[C@H](NCCCNCCCCNCCCN)CC[C@]4(C)[C@H]3C[C@H](O)[C@]12C [Compound 449] | > 1 | – | – | –
COC(=O)CC[C@@H](C)[C@H]1CC[C@H]2[C@@H]3[C@H](O)C[C@@H]4C[C@H](NCCN)CC[C@]4(C)[C@H]3CC[C@]12C [Compound 410] | 0.01 | functionally similar to compound 1437 | + | vascular reactivity (capillary regression) ([1]; 0.001 μg applied): 0; vascular reactivity (capillary regression) ([1]; 0.01 μg applied): +/-; vascular reactivity (capillary regression) ([1]; 0.1 μg applied): +/-
C[C@H](CCC(=O)O)[C@H]1CC[C@H]2[C@@H]3[C@H](O)C[C@@H]4C[C@H](NCCN)CC[C@]4(C)[C@H]3CC[C@]12C [Compound 414] | > 1 | pharmacologic activity similar to Fraction 1 | 0 | –
CC(C)CCC[C@@H](C)[C@H]1CC[C@H]2[C@@H]3CC[C@H]4C[C@H](NCCCN5CCCCN=C5N)CC[C@]4(C)[C@H]3CC[C@]12C [Compound 393] | > 10 | – | – | –
C[C@H](CCCOS(=O)(=O)O)[C@H]1CC[C@H]2[C@@H]3CC[C@H]4C[C@@H](NCCCNCCCCN)CC[C@]4(C)[C@H]3CC[C@]12C [Compound 399, 3β-N-1-{N[3-(4-Aminobutyl)]-1,3-diaminopropane}-24-hydroxy-5α-cholane 24-potassium sulfate] | > 10 | – | – | –
CC(C)CCC[C@@H](C)[C@H]1CC[C@H]2[C@@H]3[C@H](O)C[C@H]4C[C@H](N)CC[C@]4(C)[C@H]3CC[C@]12C [Compound 1363] | – | pharmacologic activity similar to Fraction 1 | – | –
CC(C)CCC[C@@H](C)[C@H]1CC[C@H]2[C@@H]3CC[C@H]4C[C@@H](NCCCNCCCCN)CC[C@]4(C)[C@H]3CC[C@]12C [Compound 303] | > 10 | – | 0 | –
COC(=O)CC[C@@H](C)[C@H]1CC[C@H]2[C@@H]3CC[C@@H]4C[C@H](NCCCNCCCCNCCCN)CC[C@]4(C)[C@H]3C[C@H](O)[C@]12C [Compound 448] | 1 | – | – | –
C[C@H](CCC(=O)O)[C@H]1CC[C@H]2[C@@H]3[C@H](O)C[C@@H]4C[C@@H](NCCN)CC[C@]4(C)[C@H]3CC[C@]12C [Compound 415] | > 1 | – | + | vascular reactivity (capillary regression) ([1]; 0.001 μg applied): 0; vascular reactivity (capillary regression) ([1]; 0.01 μg applied): +; vascular reactivity (capillary regression) ([1]; 0.1 μg applied): +; effect on chick embryo vessels / blood [1]: especially active
C[C@H](CCC(=O)O)[C@H]1CC[C@H]2[C@@H]3[C@H](O)C[C@H]4C[C@H](NCCCNCCCCN)CC[C@]4(C)[C@H]3CC[C@]12C [Compound 382] | 0.01 | – | + | vascular reactivity (capillary regression) ([1]; 0.001 μg applied): 0; vascular reactivity (capillary regression) ([1]; 0.01 μg applied): 0; vascular reactivity (capillary regression) ([1]; 0.1 μg applied): 0; vascular reactivity (capillary regression) ([1]; 10 μg applied): +

From patent US5840740A, “Aminosterol compounds and a method of treating infection using the aminosterol compounds” (priority 1995, dated 1998)
